# ChEMBL document CHEMBL1135076, “Leishmanicidal activity of some aliphatic diamines and amino-alcohols” (Bioorg Med Chem Lett, 2002)
# Columns and labels:
# Assay type in all cases: functional, organism-based
# Leishmania donovani [1] = test: In vitro for leishmanicidal activity against Leishmania donovani (PP75) at the concentration of 50 ug/mL.
# Leishmania braziliensis [2] = test: In vitro for leishmanicidal activity against Leishmania brasiliensis (2903) at the concentration of 25 ug/mL.
# Leishmania amazonensis [3] = test: In vitro for leishmanicidal activity against Leishmania amazonensis (PH8) at the concentration of 50 ug/mL.
# Leishmania donovani [4] = test: Tested in vitro for leishmanicidal activity against Leishmania donovani (PP75) at the concentration of 100 ug/mL;+ indicates Less than 70% lysis of parasites
# Leishmania braziliensis [5] = test: In vitro for leishmanicidal activity against Leishmania brasiliensis (2903) at the concentration of 50 ug/mL.
# Leishmania amazonensis [6] = test: Tested in vitro for leishmanicidal activity against Leishmania amazonensis (PH8) at the concentration of 100 ug/mL; + indicates less than 70% lysis of parasites
# Leishmania braziliensis [7] = test: In vitro for leishmanicidal activity against Leishmania brasiliensis (2903) at the concentration of 10 ug/mL.
# Leishmania amazonensis [8] = test: In vitro for leishmanicidal activity against Leishmania amazonensis (PH8) at 25 ug/mL; No lysis of parasites.
# Leishmania braziliensis [9] = test: Tested in vitro for leishmanicidal activity against Leishmania brasiliensis (2903) at the concentration of 100 ug/mL; + indicates Less than 70% lysis of parasites
# Leishmania donovani [10] = test: In vitro for leishmanicidal activity against Leishmania donovani (PP75) at the concentration of 25 ug/mL.
# Leishmania donovani [11] = test: Tested in vitro for leishmanicidal activity against Leishmania donovani (PP75) at the concentration of 10 ug/mL
# Leishmania amazonensis [12] = test: In vitro for leishmanicidal activity against Leishmania amazonensis (PH8) at the concentration of 10 ug/mL.
# Leishmania amazonensis [13] = test: In vitro for leishmanicidal activity against Leishmania amazonensis (PH8) at the concentration of 100 ug/mL.
# Leishmania donovani [14] = test: In vitro for leishmanicidal activity against Leishmania donovani (PP75) at the concentration of 100 ug/mL.
# Leishmania braziliensis [15] = test: Tested in vitro for leishmanicidal activity against Leishmania brasiliensis (2903) at the concentration of 100 ug/mL; ++ indicates 80-90% lysis of parasites
# Leishmania braziliensis [16] = test: Tested in vitro for leishmanicidal activity against Leishmania brasiliensis (2903) at the concentration of 10 ug/mL;+ indicates Less than 70% lysis of parasites
# Leishmania donovani [17] = test: In vitro for leishmanicidal activity against Leishmania donovani (PP75) at the concentration of 10 ug/mL.
# Leishmania donovani [18] = test: Tested in vitro for leishmanicidal activity against Leishmania donovani (PP75) at the concentration of 25 ug/mL;+ indicates Less than 70% lysis of parasites
# Leishmania braziliensis [19] = test: Tested in vitro for leishmanicidal activity against Leishmania brasiliensis (2903) at the concentration of 25 ug/mL;+ indicates Less than 70% lysis of parasites
# Leishmania braziliensis [20] = test: Tested in vitro for leishmanicidal activity against Leishmania brasiliensis (2903) at the concentration of 50 ug/mL;++ indicates 80-90% lysis of parasites
# Leishmania donovani [21] = test: Tested in vitro for leishmanicidal activity against Leishmania donovani (PP75) at the concentration of 50 ug/mL;++ indicates 80-90% lysis of parasites
# Leishmania braziliensis [22] = test: In vitro for leishmanicidal activity against Leishmania brasiliensis (2903) at the concentration of 100 ug/mL.
# Leishmania amazonensis [23] = test: Tested in vitro for leishmanicidal activity against Leishmania amazonensis (PH8) at the concentration of 25 ug/mL; + indicates less than 70% lysis of parasites
Structure (SMILES),Activity (Leishmania donovani [1]),Activity (Leishmania braziliensis [2]),Activity (Leishmania amazonensis [3]),Activity (Leishmania braziliensis [5]),Activity (Leishmania braziliensis [7]),Activity (Leishmania amazonensis [8]),Activity (Leishmania donovani [10]),Activity (Leishmania donovani [11]),Activity (Leishmania amazonensis [12]),Activity (Leishmania amazonensis [13]),Activity (Leishmania donovani [14]),Activity (Leishmania braziliensis [15]),also measured
CCCCCCCCCCCCCCC(=O)NC(CCCCCCCCCCCCCC)COC(=O)CCCCCCCCCCCCCC (stereo unspecified),Less than 70% lysis of parasites,Less than 70% lysis of parasites,Less than 70% lysis of parasites,Less than 70% lysis of parasites,Less than 70% lysis of parasites,Less than 70% lysis of parasites,Less than 70% lysis of parasites,Less than 70% lysis of parasites,Less than 70% lysis of parasites,–,–,–,Activity (Leishmania donovani [4]): Less than 70% lysis of parasites; Activity (Leishmania amazonensis [6]): Less than 70% lysis of parasites; Activity (Leishmania braziliensis [9]): Less than 70% lysis of parasites
CCCCCCCCCCCCCCC(COCc1ccccc1)NC(=O)CCCC(=O)O (stereo unspecified),80-90% lysis of parasites,80-90% lysis of parasites,80-90% lysis of parasites,80-90% lysis of parasites,80-90% lysis of parasites,80-90% lysis of parasites,80-90% lysis of parasites,80-90% lysis of parasites,80-90% lysis of parasites,80-90% lysis of parasites,80-90% lysis of parasites,80-90% lysis of parasites,–
CCCCCCCCCCCCCCC(CO)NC(=O)CCCCCC (stereo unspecified),Less than 70% lysis of parasites,Less than 70% lysis of parasites,Less than 70% lysis of parasites,Less than 70% lysis of parasites,Less than 70% lysis of parasites,Less than 70% lysis of parasites,Less than 70% lysis of parasites,Less than 70% lysis of parasites,Less than 70% lysis of parasites,Less than 70% lysis of parasites,Less than 70% lysis of parasites,–,Activity (Leishmania braziliensis [9]): Less than 70% lysis of parasites
C[C@@H]1[C@H](O)[C@@H](C)/C=C/C=C/C=C/C=C/C=C/C=C/C=C/[C@H](O[C@@H]2O[C@H](C)[C@@H](O)[C@H](N)[C@@H]2O)C[C@@H]2O[C@](O)(C[C@@H](O)C[C@@H](O)[C@H](O)CC[C@@H](O)C[C@@H](O)CC(=O)O[C@H]1C)C[C@H](O)[C@H]2C(=O)O,+,–,+,–,–,–,–,–,–,+,+,–,–
CCCCCCCCCCCCCCC(CNCC(=O)OCC)NC(=O)OC(C)(C)C (stereo unspecified),–,–,+,–,–,–,–,–,80-90% lysis of parasites,+,+,–,Activity (Leishmania braziliensis [16]): 80-90% lysis of parasites; Activity (Leishmania donovani [17]): 80-90% lysis of parasites; Activity (Leishmania donovani [18]): 80-90% lysis of parasites; Activity (Leishmania braziliensis [19]): 80-90% lysis of parasites; Activity (Leishmania braziliensis [20]): 80-90% lysis of parasites; Activity (Leishmania donovani [21]): 80-90% lysis of parasites; Activity (Leishmania braziliensis [22]): +; Activity (Leishmania amazonensis [23]): 80-90% lysis of parasites
CCCCCCCCCCCCCCC(N)CN(CC)CC (stereo unspecified),+,–,+,–,–,–,–,–,Less than 70% lysis of parasites,+,+,–,Activity (Leishmania braziliensis [16]): Less than 70% lysis of parasites; Activity (Leishmania donovani [17]): Less than 70% lysis of parasites; Activity (Leishmania braziliensis [22]): +
CCCCCCCCCCCCCCC(COC(=O)CCCCCC)NC(=O)CCCCCC (stereo unspecified),80-90% lysis of parasites,80-90% lysis of parasites,80-90% lysis of parasites,80-90% lysis of parasites,80-90% lysis of parasites,80-90% lysis of parasites,80-90% lysis of parasites,80-90% lysis of parasites,80-90% lysis of parasites,80-90% lysis of parasites,80-90% lysis of parasites,80-90% lysis of parasites,–
CCCCCCCCCCCCCCC(NC(=O)OC(C)(C)C)C(=O)O (stereo unspecified),80-90% lysis of parasites,80-90% lysis of parasites,80-90% lysis of parasites,80-90% lysis of parasites,80-90% lysis of parasites,80-90% lysis of parasites,80-90% lysis of parasites,80-90% lysis of parasites,80-90% lysis of parasites,80-90% lysis of parasites,80-90% lysis of parasites,80-90% lysis of parasites,–
CCCCCCCCCCCCCCC(N)CN (stereo unspecified),80-90% lysis of parasites,80-90% lysis of parasites,80-90% lysis of parasites,80-90% lysis of parasites,80-90% lysis of parasites,80-90% lysis of parasites,80-90% lysis of parasites,80-90% lysis of parasites,80-90% lysis of parasites,80-90% lysis of parasites,80-90% lysis of parasites,80-90% lysis of parasites,–
CCCCCCCCCCCCCCC(COCc1ccccc1)NCC(=O)OCC (stereo unspecified),80-90% lysis of parasites,80-90% lysis of parasites,80-90% lysis of parasites,80-90% lysis of parasites,80-90% lysis of parasites,80-90% lysis of parasites,80-90% lysis of parasites,80-90% lysis of parasites,80-90% lysis of parasites,80-90% lysis of parasites,80-90% lysis of parasites,80-90% lysis of parasites,–
CCCCCCCCCCCCCCC(CO)NC(=O)OC(C)(C)C (stereo unspecified),80-90% lysis of parasites,80-90% lysis of parasites,80-90% lysis of parasites,80-90% lysis of parasites,80-90% lysis of parasites,80-90% lysis of parasites,80-90% lysis of parasites,80-90% lysis of parasites,80-90% lysis of parasites,80-90% lysis of parasites,80-90% lysis of parasites,80-90% lysis of parasites,–
CCCCCCCCCCCCCCC(N)CO (stereo unspecified),80-90% lysis of parasites,80-90% lysis of parasites,80-90% lysis of parasites,80-90% lysis of parasites,80-90% lysis of parasites,80-90% lysis of parasites,80-90% lysis of parasites,80-90% lysis of parasites,80-90% lysis of parasites,80-90% lysis of parasites,80-90% lysis of parasites,80-90% lysis of parasites,–
CCCCCCCCCCCCCCC(COCc1ccccc1)N(CC)CC (stereo unspecified),80-90% lysis of parasites,80-90% lysis of parasites,80-90% lysis of parasites,80-90% lysis of parasites,80-90% lysis of parasites,80-90% lysis of parasites,80-90% lysis of parasites,80-90% lysis of parasites,80-90% lysis of parasites,80-90% lysis of parasites,80-90% lysis of parasites,80-90% lysis of parasites,–
CCCCCCCCCCCCCCC(CN)NC(=O)OC(C)(C)C (stereo unspecified),80-90% lysis of parasites,80-90% lysis of parasites,80-90% lysis of parasites,80-90% lysis of parasites,80-90% lysis of parasites,80-90% lysis of parasites,80-90% lysis of parasites,80-90% lysis of parasites,80-90% lysis of parasites,80-90% lysis of parasites,80-90% lysis of parasites,80-90% lysis of parasites,–
